Seven compounds from patent EP0729465B1, “PYRONE DERIVATIVES AS PROTEASE INHIBITORS AND ANTIVIRAL AGENTS” (PARKE, DAVIS & COMPANY, priority 1993, dated 1995) can be followed below.

For assay [1], the system named is Enterococcus foecalis MGH2. In words: Antibacterial activity, microtitration dilution method (MIC). Format: cell-based. From the text: (§1) The compounds of the invention display antibacterial activity when tested by the microtitration dilution method as described in Heifetz, et al., Antimicr. Agents. & Chemoth. 6:124 (1974) which is incorporated herein by reference.
(§2) By use of the above referenced method, the following minimum inhibitory concentration values (MICs in µg/mL) were obtained for representative compounds of the invention vs. clinically relevant gram positive pathogens which have become highly resistant to conventional therapy in recent years.

Assay [2] relates to Staphylococcus aureus H228. Described as above. The class given is cell-based.
Source text: as §1, §2

The test system of assay [3] is Staphylococcus aureus UC-76. The description is as above. Format: cell-based.
Source text: as §1, §2

Assay [4] relates to Streptococcus pneumonia 5V-1. The description is as above. The class given is cell-based.
Source text: as §1, §2

The test system of assay [5] is Streptococcus pyogenes C203. Described as above. Format: cell-based.
Source text: as §1, §2

A further assay addresses T1, HIV-I Protease (Human immunodeficiency virus type 1 group M subtype B, UniProt P04585).
T1 construct: HIV-I Protease: The enzyme is obtained from Bachem Bioscience Inc; purchased Bachem Bioscience Inc
In words: HIV protease inhibition (hydrolysis of undecapeptide substrate, HPLC readout). Format: biochemical. The following applies: 40 µM substrate, pH 4.7, 37 °C, 5 minutes; read-out: 50% Inhibition Concentration (Averaged). Here is the method: • DTT Buffer: 1.0 mM dithiothreitol (DTT) was prepared fresh daily in 0.1% polyethylene glycol (mw 8000) 80 mM NaOAc, 160 mM NaCl, 1.0 mM EDTA, and brought to pH 4.7 with HCl. • HIV-I Protease: The enzyme is obtained from Bachem Bioscience Inc. The undiluted enzyme is thawed from -80 °C and diluted 50-fold with DTT buffer. The solution is always kept at 0 °C on ice water and used in the experiment within 20 minutes after thawing. • Enzyme Substrate: Substrate III from Bachem Bioscience Inc. is the undecapeptide H-His-Lys-Ala-Arg-Val-Leu-p-Nitrophenylalanine-Glu-Ala-Norleucine-ser-NH2 (> 97 % purity). A 200. µM stock solution in DTT buffer is prepared and stored on ice. Substrate solution is prepared fresh daily. • Test Compound: 10 mM inhibitor (I) in dimethyl sulfoxide (DMSO) is diluted to 200 µM with DTT buffer. From the 200 µM stock solution is made a 10 µM stock solution with 2% DMSO in DTT buffer. The two inhibitor solutions are used to make final [I] = 100, 50, 20, 10, 5, 2, 1, 0.5 and 0 µM with 2% DMSO in DTT buffer in each reaction well (total inhibitor volume of 50 µl).
To each reaction well is added 20 µl of substrate (final concentration of 40 µM), 50 µl of inhibitor (at a concentration such that final dilution will produce the test concentration) and 20 µl of DTT buffer. The reaction plate (96 wells) is incubated at 37 °C for at least 5 minutes.
10 µl of the diluted protease is added to the reaction well while the reaction plate is shaking. Once shaken for 10 seconds, the plate is returned to the heating block at 37 °C. (Final reaction volume = 100 µl.)
The reaction is incubated for 5 minutes at 37 °C. The reaction is stopped by placing the reaction plate on the shaker and adding 20 µl of 10% trifluoroacetic acid (TFA) and shaking for 10 seconds. The amount of proteolysis is then determined by separation of noncleaved substrate and two cleaved products with reverse-phase HPLC, while measuring absorbance at 220 nm to determine the relative peak areas of the three components. The relative peak areas are used to calculate % conversion to product as a function of inhibitor concentration. The data is plotted as % Control (the ratio of % conversion in the presence and absence of inhibitor x 100) versus inhibitor concentration and fit with the equation Y= 100/1+(X/IC50)^A, where IC50 is the inhibitor concentration at 50% inhibition and A is the slope of the inhibition curve.

Another assay deals with HIV-1iiib. Put plainly: Anti-HIV-1 activity, acute infection of H9 cells. Format: cell-based. The following applies: Human immunodeficiency virus 1; H9 cell line infected with HIV-1iiib; reverse transcriptase assay at 4 and 7 days post infection; read-out: Concentration for 50% Protection. The protocol:
Using the general methods of Pauwels et al., (J. Virol. Methods, 16, 171-185, 1987) and Mann et al. (AIDS Research and Human Retroviruses, 253-255, 1989) anti-viral assays of acute HIV-1 infection were performed in the H9 cell line. Cultures were batch infected in 1 ml of RPM1 1640 media/10% fetal calf serum containing 10^7 cells and 10^5 infectious doses of HIV-1iiib for an effective multiplicity of infection of 0.01. After 2 hours of viral absorption, cells were washed once and plated in 96-well microtiter plates at a density of 10^4 cells per well. Test compounds were added to produce the desired concentration of drug and 0.2% DMSO in a final volume of 200 µl. Uninfected parallel cultures were maintained for XTT cytotoxicity assay at 7 days post infection. Cultures were tested for viral replication by reverse transcriptase assay at 4 and 7 days post infection.

The mark [6] stands for this setting: read-out: minimum inhibitory concentration (MIC).

Converted amounts (≈) assume the structure as drawn.

For the compound `CC(C)(C)CC(SC1CCCCC1)c1c(O)cc(-c2ccccc2)oc1=O` (racemic) [Example 92, 3-[1-(Cyclohexylthio)-3,3-dimethylbutyl]-4-hydroxy-6-phenyl-2H-pyran-2-one], the MIC worked out at 100 µg/mL (≈ 259 µM) in assay [1] (setting [6]); 25 µg/mL (≈ 64.7 µM) in assay [2] (setting [6]); 25 µg/mL (≈ 64.7 µM) in assay [3] (UC76, read-out: minimum inhibitory concentration (MIC)); 50 µg/mL (≈ 129 µM) in assay [4] (Streptococcus pneumoniae, 5V1, read-out: minimum inhibitory concentration (MIC)); 50 µg/mL (≈ 129 µM) in assay [5] (setting [6]).

For the compound `O=c1oc(-c2ccc(OCc3cccnc3)cc2)cc(O)c1SCCc1ccccc1` [Example 64, 4-Hydroxy-3-[(2-phenylethyl)thio]-6-[4-(3-pyridinylmethoxy)phenyl]-2H-pyran-2-one], the IC50 on HIV-I Protease was 1.5 µM. In addition, the EC50 with HIV-1iiib is 3 µM.

Regarding “3-[1-(Cyclohexylthio)-3-methylbutyl]-4-hydroxy-6-phenyl-2H-pyran-2-one [Example 128]”, the “minimum inhibitory concentration (MIC)” value in assay [1] is 25 µg/mL; in assay [2], 12.5 µg/mL; in assay [3], 12.5 µg/mL; in assay [4] it was 25 µg/mL; in assay [5], 25 µg/mL.

With `O=c1oc(-c2ccc(OCc3ccccc3)cc2)cc(O)c1SCCc1ccccc1` [Example 26, 4-Hydroxy-3-[(2-phenylethyl)thio]-6-[4-(phenylmethoxy)phenyl] 2-2H-pyran-2-one], at HIV-I Protease, the IC50 was 0.33 µM. Moreover, the EC50 with HIV-1iiib was determined as 17 µM.

With `Cc1cc(C)cc(-c2cc(O)c(SCc3ccccc3)c(=O)o2)c1` [Example 56, 6-(3,5-Dimethylphenyl)-4-hydroxy-3-[(phenylmethyl)-thio]-2H-pyran-2-one], on HIV-I Protease, the IC50 came to 0.13 µM. For the same compound, the EC50 in the assay on HIV-1iiib came out at 29 µM.

Take `CC(C)CC(Sc1ccccc1)c1c(O)cc(-c2ccccc2)oc1=O` (racemic) [Example 73, 4-Hydroxy-3-[3-methyl-1-(phenylthio)butyl]-6-phenyl-2H-pyran-2-one]: at HIV-I Protease, the IC50 amounted to 0.41 µM. Moreover, the EC50 in the assay with HIV-1iiib is 15 µM.

On to `O=c1oc(-c2ccccc2)cc(O)c1C(SC1CCCC1)C1CCCC1` (racemic) [Example 151, 3-[Cyclopentyl(cyclopentylthio)methyl]-4-hydroxy-6-phenyl-2H-pyran-2-one], for which the IC50 on HIV-I Protease worked out at 0.23 µM. The EC50 in the assay with HIV-1iiib was 14 µM.
